Assay results from patent US7772197B2, “1,3,5-triazines for treatment of viral diseases” (1,3,5-Triazines for Treatment of Viral Diseases, priority 2002, dated 2010).

Assays:
[1] = Pharmacokinetics of DHAdC base and DHAdC-palmitate in rats; format: in vivo; details: rat, plasma, IV
[2] = biological target: T1, polymerase-α (Homo sapiens, UniProt P09884); test: Substrate for cellular polymerase; format: biochemical; details: data not shown
T1 sequence (P09884 1-1462): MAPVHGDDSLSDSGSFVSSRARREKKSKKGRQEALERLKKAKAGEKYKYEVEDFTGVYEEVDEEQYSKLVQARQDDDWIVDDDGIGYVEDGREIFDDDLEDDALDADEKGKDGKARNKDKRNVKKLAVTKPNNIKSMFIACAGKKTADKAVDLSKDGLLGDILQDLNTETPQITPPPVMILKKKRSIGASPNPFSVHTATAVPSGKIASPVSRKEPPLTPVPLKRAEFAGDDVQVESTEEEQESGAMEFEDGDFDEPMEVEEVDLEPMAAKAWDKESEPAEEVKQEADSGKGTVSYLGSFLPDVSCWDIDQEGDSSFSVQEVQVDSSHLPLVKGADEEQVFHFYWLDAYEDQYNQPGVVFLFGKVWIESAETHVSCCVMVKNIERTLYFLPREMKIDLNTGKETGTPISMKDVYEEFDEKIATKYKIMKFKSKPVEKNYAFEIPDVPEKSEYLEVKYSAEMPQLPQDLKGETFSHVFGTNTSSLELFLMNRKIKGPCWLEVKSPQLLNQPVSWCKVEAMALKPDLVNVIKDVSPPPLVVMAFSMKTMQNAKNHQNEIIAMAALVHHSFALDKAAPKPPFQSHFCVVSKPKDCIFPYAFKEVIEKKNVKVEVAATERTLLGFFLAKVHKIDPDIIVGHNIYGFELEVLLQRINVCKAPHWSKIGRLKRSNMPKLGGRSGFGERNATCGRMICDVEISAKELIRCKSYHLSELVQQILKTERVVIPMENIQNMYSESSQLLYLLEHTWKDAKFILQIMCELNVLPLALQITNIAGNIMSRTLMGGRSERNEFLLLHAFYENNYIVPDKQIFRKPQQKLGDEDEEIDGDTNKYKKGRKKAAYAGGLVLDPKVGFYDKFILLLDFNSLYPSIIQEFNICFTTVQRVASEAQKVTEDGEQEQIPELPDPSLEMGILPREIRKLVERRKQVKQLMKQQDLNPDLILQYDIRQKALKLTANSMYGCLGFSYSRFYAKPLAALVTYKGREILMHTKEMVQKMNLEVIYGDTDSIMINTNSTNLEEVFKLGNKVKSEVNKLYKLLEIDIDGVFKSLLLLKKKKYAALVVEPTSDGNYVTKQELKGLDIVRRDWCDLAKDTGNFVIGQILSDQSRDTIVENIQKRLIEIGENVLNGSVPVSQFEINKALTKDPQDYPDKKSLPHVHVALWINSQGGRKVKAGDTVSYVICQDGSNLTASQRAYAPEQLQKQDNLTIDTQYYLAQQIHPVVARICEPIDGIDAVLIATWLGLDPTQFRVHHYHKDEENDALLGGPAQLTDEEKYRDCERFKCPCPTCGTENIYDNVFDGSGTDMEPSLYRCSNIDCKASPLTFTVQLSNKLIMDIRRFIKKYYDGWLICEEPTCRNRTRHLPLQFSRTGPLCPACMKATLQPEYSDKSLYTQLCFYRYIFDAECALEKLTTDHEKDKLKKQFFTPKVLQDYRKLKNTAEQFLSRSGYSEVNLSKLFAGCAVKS

With `NC1=NC(=O)N([C@H]2C[C@H](O)[C@@H](CO)O2)CN1` [DHAdC, 1-(2-Deoxy-β-D-ribofuranosyl)-4-amino-1,2,5,6-tetrahydro-1,3,5-triazin-2-one] the AUC(0-inf) [1] was 75000 ng·h/mL and the “substrate for polymerase-α” value [2] was “poor substrate”.
